Laboratory results published in paper PMC8839939 (Polymers, 2022).

How the values were obtained:
[1] = In-vivo pharmacokinetic study in mice; settings: mouse, plasma
Description: In in-vivo study, the average mouse weight was 24 ± 5 g. Mice were acclimated for 7 days prior to the study and fasted for 24 h before the study. All in-vivo experiments were approved by the ethical committee, Faculty of Pharmacy, Gomal University (No: 10/ERB/GU). The mice were anesthetized under gas anesthesia (i.e., isoflurane in oxygen (2–4% (v/v))). Bulk hairs were removed with an electrical clipper and then a depilatory cream was applied to remove the remaining hair that could interfere with the insertion of LS-TC-MNP [41, 42]. Hairs were removed from the back area of mouse at 4 h prior to experiment. Mice were divided into two groups (n = 16 per group (total: 32)); oral (given the oral LS dispersion) and transdermal (LS-TC-MNP inserted in skin). Mice in the oral group received an oral LS dispersion of (200 mg/kg). The transdermal group was the LS-TC-MNP treatment group, in which each mouse was treated with (LS = 25 mg) LS-TC-MNP. To facilitate the insertion of LS-TC-MNP, the mice were anesthetized by gas anesthesia. The mice skin was pinched, and LS-TC-MNP attached to self-adhesive margins was inserted with firm finger pressure onto the back of each mouse. Blood samples were withdrawn by bleeding the tail vein at predetermined time intervals. The study plan was 16 mice per group and a maximum of (n = 3) blood samples was withdrawn from each mouse. Each mouse was bled twice a day. After 1 and 4 h, blood was withdrawn from the first 4 mice; the next 4 mice were bled after 2 and 6 h; the next four mice at 8 and 24 h; the remaining 4 mice at 12 h; and all mice (n = 16) at 48 h. The area under the curve and other pharmacokinetic parameters were measured by using Pk solver software (Microsoft Excel add-in programm).

[2] = cited from earlier work

Q: Which results are given for `CCN1CCC[C@H]1CNC(=O)c1cc(S(N)(=O)=O)ccc1OC` [Levosulpiride, 5-(amino-sulfonyl)-N-[(1-ethyl-2-pyrrolidinyl)methyl]-2-methoxy benzamide]?
A: concentration at 1 h ([1]; 1 h, patch LS = 25 mg transdermal or oral dispersion 200 mg/kg): 500 ± 1940 ng/mL; concentration at 2 h ([1]; 2 h, oral dispersion 200 mg/kg, read-out: LS plasma concentration): 200 ng/mL; concentration at 4 h ([1]; 4 h, oral dispersion 200 mg/kg, read-out: LS plasma concentration): 180 ng/mL; concentration at 6 h ([1]; 6 h, patch LS = 25 mg transdermal or oral dispersion 200 mg/kg): 400 ± 1370 ng/mL; intravenous dose excreted unchanged in the urine ([2]; intravenous ref 6): 70–90%; half-life ([2]; oral ref 4): about 6 h; oral bioavailability ([2]; oral ref 4): less than 25%; oral dose excreted unchanged in the urine ([2]; oral ref 6): 15–25%
